The source of these data is ChEMBL document CHEMBL1132746, “Biologically active oligodeoxyribonucleotides. Part 12: N2-methylation of 2'-deoxyguanosines enhances stability of parallel G-quadruplex and anti-HIV-1 activity” (Bioorg Med Chem Lett, 2000).

Common to all, as to settings: Homo sapiens
Test [1] deals with MT4. Nature of the test: Tested for cytopathic effect of compound for MT-4 cells infected with HIV-1 IIIb strain. Type of test: functional, cell-based.
Test [2] concerns MT4. Nature of the test: Concentration required to show cytotoxicity for MT-4 cells infected with HIV-1 IIIb strain. It counts as functional.
The subject of test [3] is MT4. Nature of the test: Tested for cytopathic effect of compound for MT-4 cells infected with HIV-1 IIIb strain relative to R-95288 (1). Type of test: functional, cell-based.

For the compound `Cc1cn([C@H]2C[C@H](OP(=O)(O)O[C@H]3O[C@@H](n4cnc5c(=O)[nH]c(N)nc54)C[C@@H]3OP(=O)(O)OC[C@H]3O[C@@H](n4cnc5c(=O)[nH]c(N)nc54)C[C@@H]3OP(=O)(O)OC[C@H]3O[C@@H](n4cnc5c(=O)[nH]c(N)nc54)C[C@@H]3OP(=O)(O)OC[C@H]3O[C@@H](n4cnc5c4N=CNC5N)C[C@@H]3OP(=O)(O)OC[C@H]3O[C@@H](n4cnc5c(=O)[nH]c(N)nc54)C[C@@H]3OP(=O)(O)OCCO)[C@@H](COCc3ccc(OCc4ccccc4)c(OCc4ccccc4)c3)O2)c(=O)[nH]c1=O` (some centres undefined), inhibition with MT4 [1] was half-maximal at 1 µM (IC50). Also, the CC50 with MT4 [2] was above 40 µM.
`Cc1cn([C@H]2C[C@H](OP(=O)(O)O[C@H]3O[C@@H](n4cnc5c(O)nc(N)nc54)C[C@@H]3OP(=O)(O)OC[C@H]3O[C@@H](n4cnc5c(O)nc(N)nc54)C[C@@H]3OP(=O)(O)OC[C@H]3O[C@@H](n4cnc5c(O)nc(N)nc54)C[C@@H]3OP(=O)(O)O)[C@@H](COCc3ccc(OCc4ccccc4)c(OCc4ccccc4)c3)O2)c(=O)[nH]c1=O` displayed an IC50 in the test on MT4 [3] of 43 µM. Further, the CC50 in the test on MT4 [2] was above 40 µM.
